Ends that are not written are not given here.

Series [1] deals with sensory nerves. As to the kind of experiment: Rat footpad blister model, vascular response to antidromic electrical stimulation of the sciatic nerve. The series is classed as in vivo. On the procedure:
(§1) A vacuum-induced blister model in the footpad of anaesthetised rats is used to induce an inflammatory response in naive skin by (a) electrical stimulation (ES) of the distal end of the cut sciatic nerve at 20 v, 5 Hz, […] for 1 min or (b) superfusion of the sensory neuropeptide; substance P (SP) over the blister base.
Male outbred Sprague-Dawley rats with an average weight of 250-300 gm were used (n=6-8 per group). Anaesthesia was induced with pentobarbitone sodium (Nembutal, 60 mg/kg, i.p.). To ensure that rats remained under a constant stage of surgical anaesthesia additional doses (15 mg/kg) were administered during the experiment. The absence of an eyelash reflex was used as an indication of the level of unconciousness. At the end of the experiment, animals were killed by barbituate overdose (100 mg/kg).
A blister was induced on the hind footpad on the anaesthetised rat by applying a vacuum pressure of −40 kPa to the glabrous skin for approximately 30 mins, using a metal suction cap heated to 40° C. by an attached heating element.
When a blister was established, the surface epithelium was removed and a perspex chamber with inlet and outlet ports was fixed over the blister base. Perfusion of the drugs over the blister was maintained at 4 ml/h by a peristaltic pump (Microperpex S, LKB, Sweden). Both perfusion and body temperature were kept at 37° C.
An initial 15 min equilibration with Ringer's solution (NaCl 9.0 g, KCl 0.42 g, CaCl2 0.48 g, NaHCO3 0.2 g in 1000 ml dH2O) was allowed before each experiment, during which time a stable baseline was established.
The right sciatic nerve in the mid-thigh region of the anaesthetised rat was dissected free and cut as proximally as possible. The distal portion of the cut nerve was placed over bipolar platinum electrodes and immersed in liquid paraffin warmed to 37° C. and contained in a bath that was formed by raising the skin flaps of the wound. The distal end of the sciatic nerve was stimulated with a Grass S48 stimulator at 20 V, 5 Hz, 0.5 ms square waves for 1 min. These parameters were previously shown to stimulate sensory nerves with subsequent release of sensory peptides.
(§2) For measurement of local blood flow, a probe attached to a laser Doppler flowmeter (Periflux, PF2B, Perimed, Sweden) was inserted vertically through a third port in the perspex chamber above the blister base. Relative blood flow was recorded over time on a chart recorder and measured as the surface area under the response curve in cm^2 using a digital planimeter.
(§3) Vasodilator responses were measured as the area under the response curve (cm^2) using a digital planimeter (Tamaya, Japan). For vascular responses to ES the area was measured for 20 min following stimulation. […] Results are expressed as mean±SEM. […]

The conditions of series [2]: human, in vivo.
Series [3] relates to sensory nerves. As to the kind of experiment: Rat footpad blister model, vascular response to substance P perfusion. The series is classed as in vivo. Conditions: SP 1 μM alone. On the procedure: as §1
Male outbred Sprague-Dawley rats with an average weight of 250-300 gm were used (n=6-8 per group). Anaesthesia was induced with pentobarbitone sodium (Nembutal, 60 mg/kg, i.p.). To ensure that rats remained under a constant stage of surgical anaesthesia additional doses (15 mg/kg) were administered during the experiment. The absence of an eyelash reflex was used as an indication of the level of unconciousness. […]
as §2, §3

A further series has as its system BA-TABM. As to the kind of experiment: Competitive inhibition ELISA, BA-TABM against plate bound BA-HSA. Conditions: competitor pre-incubated with BA-TABM. Type of series: binding, human. On the procedure:
FIG. 13 is a graphical representation of competitive inhibition ELISA between BA-TABM and various haptens. Purified BA-TABM was diluted and pre-mixed with various haptens. […] The amount of TABM binding as determined using the mouse monoclonal anti-human TABM antibody (MG3C9-1A12). [drawing 12]
FIG. 14 is a graphical representation showing inhibition ELISA between BA-TABM and various chemicals. Purified BA-TABM was diluted and pre-mixed with various chemicals. […] The amount of TABM binding was determined using the mouse monoclonal anti-human TABM antibody (MG3C9-1A12). [drawing 13]
The competing antigens or haptens were serially diluted (½) in the diluted serum to give a range equivalent to 5000-312.5 ng per well. […] The plate was then incubated for 60 minutes at 37° C. After washing, mouse anti-human TABM was diluted ( 1/2000), added to the plate and incubated for 90 minutes at 37° C., followed by sheep anti-mouse immunoglobulins ( 1/1000). The assay was then completed as previously described. The same ELISA conditions were used with non-bound organic molecules, except that pre-incubation of competing molecules with BA-TABM and serum was for 60 minutes.

For the compound `COc1cc(CNC(=O)CCCC/C=C/C(C)C)ccc1O` [capsaicin, reference compound], in the series on sensory nerves [1] (capsaicin-pretreated rats (50 mg/kg s.c., neonatal), no TGF-β), the “area of the vascular response to ES” value is on record as 11.7±1.1 cm^2.

`Cc1ccccc1` [toluene]: in series [2], the “Digit Symbol, Post Challenge Mean” value is 40.00 No. of correct items; the “Focal Length, Post Challenge Mean” value is recorded as 29.53 cms; the “Letter Cancellation” value is recorded as 63% correct; the “Letter Cancellation Time, Post Challenge Mean” value turned out to be 4.79 min. Further, in series [2], the “Letter Cancellation time” value was “(5′40″)”; the “Letter Cancellation, Post Challenge Mean” value was 77.56 % Correct; the “Prose Memory (delayed), Post Challenge Mean” value is on record as 8.77 No. Items recalled; the “Prose Memory (immediate), Post Challenge Mean” value was found to be 7.36 No. Items recalled. For the same compound, in series [2], the “Prose: Delayed Recall” value is given as 6.5 items; the “Prose: Immediate Recall” value amounted to 6 items; the “STROOP (colour), Post Challenge Mean” value came out at 74.43 No. seconds/100 words; the “STROOP (colour-word), Post Challenge Mean” value stood at 119.73 No. seconds/100 words. Further, in series [2], the “STROOP (word), Post Challenge Mean” value was determined as 58.93 No. seconds/100 words; the “Stroop: Colour word” value turned out to be 161 s; the “Stroop: Colours” value came out at 90 s; the “Stroop: Words” value turned out to be 75 s. Further, the “Symbol Digit” value in series [2] was 32 items.

For “Substance P (RPKPQQFFGLM; ends and bridges not checked; UniProt P20366 58-68, looked up) [SP, sensory neuropeptide]”, in the series with sensory nerves [3], the “vasodilatation response to SP, area under curve 30 min” value was found to be 44.1±3.9 cm^2.

Regarding TGF-β, the “area of the vascular response to ES in presence of TGF-β” value with sensory nerves [1] (capsaicin-pretreated rats, TGF-β 10 pg/ml) turned out to be 12.1±1.0 cm^2. Moreover, in the series on sensory nerves [1] (control rats, TGF-β 10 pg/ml), the “effect on baseline blood flow” value is listed as “did not alter the baseline”. Further, the “area under the vascular response curve to ES, 20 min” value with sensory nerves [1] (control rats, TGF-β 10 pg/ml perfused 10 min prior to ES and post stimulation) is listed as 31.44±3.2 cm^2.

With “TMA-BSA: trimellitic acid (TMA) protein conjugate”, the “inhibition of BA-TABM binding to plate bound BA-HSA” value in the series with BA-TABM is reported as “Weaker inhibition”.

For the origin of these results see patent US6485970B1, “Immunointeractive antibody” (priority 1997, dated 2002).
